According to paper PMC11396972, “Synthesis of Hybrid Molecules with Imidazole-1,3,4-thiadiazole Core and Evaluation of Biological Activity on Trypanosoma cruzi and Leishmania donovani” (Molecules, 2024):

Assays:
Vero cells = assay: Host cell toxicity assay, MTT; format: cell-based; conditions: for L. donovani (SI) selectivity index: Vero cells CC50 versus L. donovani IC50; for T. cruzi (SI) selectivity index: Vero cells CC50 versus T. cruzi IC50
Experimental: (§1) To determine the possible toxic effects of the compounds on the host cells, uninfected Vero cells, maintained in DMEM, BSF 10%, incubated at 37 °C in humidified 5% CO2, were counted in suspension in a Neubauer chamber and seeded at 2 × 10^4 cells/well in a 96-well plate. After 24 h compounds were added. […] A total of 5 mg/mL of MTT was added and incubated in darkness for 4 h. After this time, DMSO was added and the plate was read at 540 nm in a spectrophotometer Synergy HT (Biotek, Winooski, VT, USA).

[1] = Host cell toxicity assay, MTT; format: cell-based; conditions: African green monkey, Vero cells (uninfected); Vero cells, 48 h, MTT; read-out: CC50 (μM) cytotoxicity on Vero cells
Experimental: as §1

[2] = test system: Leishmania donovani promastigotes (LD51 strain); assay: Estimation of IC50 on promastigotes of L. donovani, MTT test; format: cell-based; conditions: 72 h, eight concentrations 5–500 µM, triplicate
Experimental: (§2) Parasites were collected in the logarithmic phase of growth before the experiments. The test compounds, as well as the reference drugs, metronidazole, nifurtimox and amphotericin B, were previously dissolved in DMSO and then in LIT medium and added to the cultures at the required concentrations; the final DMSO concentration in cultures was 1% (v/v). Eight concentrations of each compound in the range 5–500 µM were tested and assayed in triplicate. Growth inhibition was assessed after 72 h incubation in the presence of the compounds by MTT (5 mg/mL), dissolved in PBS, and incubated for 4 h in the dark. Finally, the parasites were lysed with DMSO and the plate was read in a spectrophotometer at 570 nm.

[3] = test system: Trypanosoma cruzi epimastigotes (Y strain (TCII)); assay: Estimation of IC50 on epimastigotes of T. cruzi, MTT test; format: cell-based; conditions: 72 h, eight concentrations 5–500 µM, triplicate
Experimental: as §2

[4] = test system: Leishmania donovani promastigotes (LD51 strain); assay: Proliferation of L. donovani promastigotes, MTT test, single concentration; format: cell-based; conditions: 72 h incubation, read-out: L. donovani % Inhibition ± SD (antiproliferative activity)
Experimental: A drug-free control (negative control) was included and positive controls were Metronidazole (Mtz), Benznidazole (Bnz), Amphotericin B (Aph), and Nifurtimox (Nfx), (50 μM). […] Parasites were collected in the logarithmic phase of growth before the experiments. It was arranged in plates of 96 wells, 4 × 10^5 promastigotes per well and incubated at room temperature °C for 24 h. Subsequently, the compounds to be evaluated, dissolved in DMSO (0.1% final), were added at a single concentration of 50 μM, a drug-free control (negative control) was included, and amphotericin B was used as leishmanicidal control. To select those compounds active on promastigotes, it was incubated for 72 h after and then MTT (5 mg/mL), dissolved in PBS, was added and incubated for 4 h in the dark. Finally, the cells were lysed with DMSO and the plate was read in a spectrophotometer at 570 nm.

[5] = test system: Trypanosoma cruzi epimastigotes (Y strain (TCII)); assay: Proliferation of T. cruzi epimastigotes, MTT test, single concentration; format: cell-based; conditions: 72 h incubation; for T. cruzi % Inhibition ± SD (antiproliferative activity): 50 μM; for inhibition at 50 µM: Trypanosoma cruzi, 72 h, read-out: T. cruzi % Inhibition ± SD (antiproliferative activity)
Experimental: A drug-free control (negative control) was included and positive controls were Metronidazole (Mtz), Benznidazole (Bnz), Amphotericin B (Aph), and Nifurtimox (Nfx), (50 μM). […] Parasites were collected in the logarithmic phase of growth before the experiments. It was arranged in plates of 96 wells, 2 × 10^5 epimastigotes per well and incubated at 28 °C for 24 h. Subsequently, the compounds to be evaluated, dissolved in DMSO (0.1% final), were added at a single concentration of 50 μM. A drug-free control (negative control) was included, and benznidazole and nifurtimox were included as positive controls. […] Finally, the cells were lysed with DMSO and the plate was read in a spectrophotometer at 570 nm.

SMILES	melting point [°C]	L. donovani (SI) selectivity index (Vero cells)	T. cruzi (SI) selectivity index (Vero cells)	CC50 at 48 h [1] [µM]	IC50 [2] [µM]	IC50 [3] [µM]	inhibition at 50 µM [4] [%]	T. cruzi % Inhibition ± SD (antiproliferative activity) [5] [%]	inhibition at 50 µM [5] [%]
Cc1ncc([N+](=O)[O-])n1CCOC(=O)c1ccc(Nc2nnc(-c3ccc(Cl)cc3)s2)cc1 [Compound 20, 2-(2-Methyl-5-nitro-1H-imidazol-1-yl)ethyl-4-{[5-(4-chlorophenyl)-1,3,4-thiadiazol-yl]amino}benzoate]	242 to 244	>9.17	>9.67	> 500	54.5 ± 8.51	51.7 ± 6.59	40.4 ± 4.18	49.37 ± 4.45	~50
Cc1ncc([N+](=O)[O-])n1CCOC(=O)c1ccc(Nc2nnc(-c3cccc(Cl)c3)s2)cc1 [Compound 19, 2-(2-Methyl-5-nitro-1H-imidazol-1-yl)ethyl-4-{[5-(3-chlorophenyl)-1,3,4-thiadiazol-2-yl]amino}benzoate]	202 to 204	>8.37	>8.87	> 500	59.7 ± 8.82	56.3 ± 6.83	31.8 ± 1.95	53.10 ± 3.68	~50
Cc1ncc([N+](=O)[O-])n1CCOC(=O)c1ccc(Nc2nnc(-c3cccnc3)s2)cc1 [Compound 18, 2-(2-Methyl-5-nitro-1H-imidazol-1-yl)ethyl-4-[(5-(pyridin-3-yl)-1,3,4-thiadiazol-2-yl]amino)benzoate]	232 to 234	–	–	–	–	–	10.1 ± 2.92	–	17.4 ± 14.4
C[C@@H]1[C@H](O)[C@@H](C)/C=C/C=C/C=C/C=C/C=C/C=C/C=C/[C@H](O[C@@H]2O[C@H](C)[C@@H](O)[C@H](N)[C@@H]2O)C[C@@H]2O[C@](O)(C[C@@H](O)C[C@@H](O)[C@H](O)CC[C@@H](O)C[C@@H](O)CC(=O)O[C@H]1C)C[C@H](O)[C@H]2C(=O)O [Aph, Amphotericin B, reference compound]	–	–	–	> 250	0.33 ± 0.02	–	62.4 ± 6.6	–	–
COc1cc(-c2nnc(Nc3ccc(C(=O)OCCn4c([N+](=O)[O-])cnc4C)cc3)s2)cc(OC)c1OC [Compound 23, 2-(2-Methyl-5-nitro-1H-imidazol-1-yl)ethyl-4-{[5-(3,4,5-trimethoxyphenyl)-1,3,4-thiadiazol-2-yl]amino}benzoate]	252	–	–	–	–	–	12.7 ± 2.31	–	20.3 ± 6.73
Cc1ncc([N+](=O)[O-])n1CCO [Mtz, Metronidazole, reference compound]	–	–	–	–	50.3 ± 11.9	180 ± 18.9	–	–	12.2 ± 5.3
Cc1ncc([N+](=O)[O-])n1CCOC(=O)c1ccc(Nc2nnc(-c3ccccc3)s2)cc1 [Compound 21, 2-(2-Methyl-5-nitro-1H-imidazol-1-yl)ethyl-4-[(5-phenyl-1,3,4-thiadiazol-2-yl)amino]benzoate]	240 to 242	>49.65	>9.01	> 500	10.1 ± 2.21	55.5 ± 7.2	71.4 ± 5.28	58.35 ± 2.05	~50
Cc1ncc([N+](=O)[O-])n1CCOC(=O)c1ccc(Nc2nnc(-c3ccc(-c4ccccc4)cc3)s2)cc1 [Compound 22, 2-(2-Methyl-5-nitro-1H-imidazol-1-yl)ethyl-4-{[5-((1,1’-biphenyl)-4-yl)-1,3,4-thiadiazol-2-yl]amino}benzoate]	> 300	–	–	–	–	–	12.9 ± 2.08	–	7 ± 2.28
O=C(Cn1ccnc1[N+](=O)[O-])NCc1ccccc1 [Bnz, Benznidazole, reference compound]	–	–	–	–	–	–	–	–	45.4 ± 6.21
CC1CS(=O)(=O)CCN1/N=C/c1ccc([N+](=O)[O-])o1 (stereo not shown) [Nfx, Nifurtimox, reference compound]	–	–	–	> 90	–	1.81 ± 0.45	–	–	83 ± 1.6
